One test deals with Pasteurella multocida. Kind of test: The minimum inhibitory concentration (MIC) of the cyclohexylamide analogs against Pasteurella multocida. The format is functional.
Test [1] deals with Brachyspira hyodysenteriae. Kind of test: The minimum inhibitory concentration (MIC) of the cyclohexylamide analogs against Serpulina hyodysenteriae. Format: functional.

The text below walks through data of ChEMBL document CHEMBL1126450, “Semisynthetic modification of hygromycin A. 3. synthesis and antibacterial activity of aminocyclitol analogs” (1992).

SMILES strings stand for the structures. In brackets after ≈: the same amount, converted by molar mass. Some results are limits rather than exact numbers.

In general, MIC refers to the lowest concentration found to suppress growth.

With `CO[C@@H]1[C@H](O)[C@@H](O)[C@@H](NC(=O)/C(C)=C\c2ccc(O[C@@H]3O[C@H](C(C)=O)[C@@H](O)[C@@H]3O)c(O)c2)[C@@H](O)[C@@H]1OC`, the values for the MIC (against Pasteurella multocida; in test [1]) were greater than 400 µg/mL and 100 µg/mL (≈ 190 µM), respectively.
With `CO[C@@H]1[C@@H](O)[C@H]2OCO[C@H]2[C@H](O)[C@@H]1NC(=O)/C(C)=C\c1ccc(O[C@@H]2O[C@H](C(C)=O)[C@@H](O)[C@@H]2O)c(O)c1`, the minimal inhibitory concentration (MIC) with Pasteurella multocida turned out to be 12.5 µg/mL (≈ 23.8 µM); in test [1], 3.13 µg/mL (≈ 5.96 µM).
As to `CC(=O)[C@H]1O[C@@H](Oc2ccc(/C=C(\C)C(=O)N[C@H]3C4OC(C5OCOC54)[C@H]3O)cc2O)[C@@H](O)[C@@H]1O` (some centres undefined), the MIC (with Pasteurella multocida; in test [1]) was greater than 200 µg/mL in each case.
Consider `CO[C@@H]1[C@@H](O)[C@@H](NC(=O)/C(C)=C\c2ccc(O[C@@H]3O[C@H](C(C)=O)[C@@H](O)[C@@H]3O)c(O)c2)[C@@H](O)[C@@H]2OCO[C@H]12`, for which the results for the minimum inhibitory concentration (MIC) (in the test on Pasteurella multocida; in test [1]) were 100 µg/mL (≈ 190 µM) and 25 µg/mL (≈ 47.6 µM), respectively.
On to `CC(=O)[C@H]1O[C@@H](Oc2ccc(/C=C(/C)C(=O)N[C@H]3[C@@H](O)[C@@H]4OCO[C@@H]4[C@H](O)[C@@H]3O)cc2O)[C@@H](O)[C@@H]1O`, for which the minimal inhibitory concentration (MIC) against Pasteurella multocida was found to be 12.5 µg/mL (≈ 24.4 µM); in test [1], 3.13 µg/mL (≈ 6.12 µM).
For `CO[C@@H]1[C@H](NC(=O)/C(C)=C\c2ccc(O[C@@H]3O[C@H](C(C)=O)[C@@H](O)[C@@H]3O)c(O)c2)[C@H](O)[C@@H](O)[C@H]2OCO[C@H]21`, in that order: 12.5 µg/mL (≈ 23.8 µM) and 6.25 µg/mL (≈ 11.9 µM).
Turning to `CC(=O)[C@H]1O[C@@H](Oc2ccc(/C=C(\C)C(=O)N[C@@H]3[C@H](O)[C@@H](O)[C@H]4OCO[C@H]4[C@@H]3O)cc2O)[C@@H](O)[C@@H]1O` [HYGROMYCIN A], the minimum inhibitory concentration (MIC) (in the test with Pasteurella multocida; in test [1]) was 1.56 µg/mL (≈ 3.05 µM) each time.
